For series [1], the target named is T1, human AChE (Homo sapiens, UniProt P22303).
T1 construct: purchased Sigma-Aldrich
The series is described as follows: In vitro cholinesterase inhibition (Ellman), AChE. The format is biochemical. The method, then:
(§1) Inhibitory activities of the tested compounds against AChE and BChE were measured according to Ellman et al.. Enzyme-catalysed hydrolysis of ATCHh was carried out at 25 °C in 0.1 M phosphate buffer (pH 8.0) containing 0.25 U AChE, 1 mM ATCHh as substrates, and 0.1 mM of DTNB. In experiments with BuChE, 0.1 M phosphate buffer (pH 7.0) and BuTChh as a substrate were used. The tested compounds were pre-incubated with the enzyme for two minutes prior to the addition of the substrate and the subsequent recording of hydrolysis kinetics. […] A sample without an inhibitor was used as a control (100% cholinesterase activity). A sample without a substrate was used as a blank. Experiments were performed in triplicate.

For another series, the target named is T2, BChE from human plasma (Homo sapiens, UniProt P06276).
T2 construct: butyrylcholiesterase from human plasma; purchased Sigma-Aldrich; host or cells: human plasma
T2 sequence (P06276 29-602): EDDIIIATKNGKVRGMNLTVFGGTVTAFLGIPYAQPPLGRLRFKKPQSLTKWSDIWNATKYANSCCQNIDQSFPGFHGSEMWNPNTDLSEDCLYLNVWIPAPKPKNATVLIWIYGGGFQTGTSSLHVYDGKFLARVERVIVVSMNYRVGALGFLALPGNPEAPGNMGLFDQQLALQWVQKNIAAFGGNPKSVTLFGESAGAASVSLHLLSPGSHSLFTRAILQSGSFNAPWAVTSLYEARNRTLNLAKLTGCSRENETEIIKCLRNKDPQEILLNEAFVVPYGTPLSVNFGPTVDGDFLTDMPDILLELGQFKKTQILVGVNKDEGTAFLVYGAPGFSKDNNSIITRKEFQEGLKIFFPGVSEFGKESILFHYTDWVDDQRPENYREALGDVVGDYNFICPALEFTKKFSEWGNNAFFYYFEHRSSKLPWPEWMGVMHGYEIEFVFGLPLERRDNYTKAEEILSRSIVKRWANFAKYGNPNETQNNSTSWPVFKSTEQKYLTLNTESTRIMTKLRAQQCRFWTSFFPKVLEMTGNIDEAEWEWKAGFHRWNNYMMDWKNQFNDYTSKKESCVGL
Kind of series: In vitro cholinesterase inhibition (Ellman), BuChE. The format is biochemical. The method, then: as §1
A general note: In Ellman's method for cholinesterases, released thiocholine reacts with DTNB.

Series [2] deals with T1, human AChE. The series is described as follows: Inhibition constants (Dixon and Cornish–Bowden plots), AChE. The format is biochemical. On the procedure:
(§2) Experiments were performed using four different concentrations of ATCh as a substrate for AChE, and with BuTCh as a substrate for BuChE. According to the analysis of Dixon and Cornish–Bowden plots for bisuracil 2b, AChE and BuChE inhibition is of a mixed type characterised both by competitive inhibition (Kci) and uncompetitive inhibition (Kui) components. For AChE, Kci was determined to be 55.7 ± 8.1 pM while Kui = 156 ± 18 pM (Figure 3A,B), and Kci = 0.13 ± 0.02 mM while Kui = 0.7 ± 0.06 mM for BuChE (Figure 3C,D). Inhibition of AChE and BuChE by bisuracil 3c was of a mixed type. For the AChE constant, Kci was 0.7 ± 0.04 nM while Kui 4.45 ± 1.76 nM (Figure 4A,B); for the BuChE constant, Kci = 0.04 ± 0.007 мM while Kui = 0.68 ± 0.08 мM (Figure 4C,D).
(§3) A UV-1800 Shimadzu (Shimadzu Co., Kyoto, Japan) spectrophotometer was utilised to conduct the measurements. The final enzyme concentration in the assays was in the picomolar range. In order to ascertain the levels of spontaneous hydrolysis of the enzyme and substrate in the absence of an inhibitor, controls were performed for each substrate concentration. The change in absorption was then recorded over a period of three minutes. The inhibition constants were determined from a Dixon plot and Cornish–Bowden transformation.

Another series addresses T3, human BuChE (Homo sapiens, UniProt P06276).
T3 construct: butyrylcholiesterase from human plasma; purchased Sigma-Aldrich; host or cells: human plasma
The series is described as follows: Inhibition constants (Dixon and Cornish–Bowden plots), BuChE. The format is biochemical. On the procedure:
as §2, §3

Series [3] can be described thus: Acute toxicity, single i.p. injection. Particulars: CD-1, mouse, in vivo, ip, mice. The method, then:
Toxicological experiments were performed using a single i.p. injection of the tested compounds in CD-1 mice weighing 20–25 g. Stock solutions of the tested compounds were diluted in ethanol or water. The final ethanol dose was 100 mg/kg. Nine different doses of the tested compounds were used with 12 mice per dose. Animals were observed 7 days after injection, and symptoms of toxicity were recorded.

Series [4] has as its system mice poisoned with 2×LD50 of POX. Kind of series: Protection against POX toxicity (pre-treatment). It is filed as in vivo. Particulars: for n/N (mice surviving 5 days after POX poisoning / total): atropine 15 mg/kg i.p. 1 min after POX. The method, then: The concept of using reversible AChE inhibition as a preventive strategy to enhance the efficacy of traditional antidotes in OP poisoning is a well-established principle. This study explores the potential of bisuracil 2b as a preventive agent to protect AChE from irreversible inhibition caused by paraoxon (POX), a model OP. […] Following POX administration, the standard antidote atropine was given at a dose of 15 mg/kg within one minute. […] Increasing the dose of bisuracil 2b reduced the protective effect in POX poisoned animals (Table 3).
We also estimated the relative risk of death (RRD) as a function of precocity (from min to hours) over a period of 10 h by Cox survival analysis. Statistical differences in the number of surviving animals between experimental groups were tested using the Cox–Mantel multisample logarithmic rank criterion. It was shown that, in mice exposed to 0.42 mg/kg of POX, RRD = 1 (Figure 5). However, in animals that received atropine within 1 min after poisoning, POX-induced mortality was lower (RRD = 0.5; Figure 5).
The tested compound was administered via i.p. before POX injection.

Series [5] concerns mice. Kind of series: Rotarod test. To be noted: 2b 0.01 mg/kg i.p.; control 173 ± 21 s, p = 0.125. The format is in vivo. On the procedure: (§4) The ability of effective doses of bisuracil 2b (0.01 mg/kg) and bisuracil 3c (5 mg/kg) to induce incapacitation was evaluated. Locomotor activity, measured as the total distance travelled, and exploratory behaviour, assessed by the number of rearings (head inclinations) and head dips, were evaluated using the open-field test. Additionally, motor coordination was analysed using the rotarod test, where the ability of mice to stay on the rotating rod was recorded. The compounds were administered i.p. 30 min before testing, while the control group received an equivalent volume of the vehicle.
To analyse motor function, rotarod and open-field tests were carried out. Mice were randomly divided into 3 groups (n = 12): a control group of mice and groups of mice treated with tested compounds. Tests were conducted 1 h after compound exposure. To assess motor function, mice were first placed on a rotarod treadmill (Ugo Basile, Italy). Rotation speed was fixed at 15 rpm, and the time that each mouse remained on the rod was recorded as the score, with a maximum duration of 300 s per trial. Each mouse underwent 3 trials. […] To assess motor function, the distance travelled in centimetres in the arena was measured, using VideoMot2 software (Version 8.02 (131) 03-07-17 (TSE Systems, Bad Homburg, Germany).

Series [6] deals with mice. The series is described as follows: Open-field test. It is filed as in vivo. To be noted: 2b 0.01 mg/kg, 3c 5 mg/kg, i.p. The method, then:
as §4
To analyse motor function, rotarod and open-field tests were carried out. Mice were randomly divided into 3 groups (n = 12): a control group of mice and groups of mice treated with tested compounds. Tests were conducted 1 h after compound exposure. To assess motor function, mice were first placed on a rotarod treadmill (Ugo Basile, Italy). Rotation speed was fixed at 15 rpm, and the time that each mouse remained on the rod was recorded as the score, with a maximum duration of 300 s per trial. Each mouse underwent 3 trials. After recording the length of time that mice managed to remain on the rotarod (latency to fall), the average of three trials was used for further analysis. Following the rotarod test, motor function was studied in an open field apparatus (Open Science, Krasnogorsk, Russia), as described in [39]. The numbers of rearing and head dips were estimated as indexes of exploratory activity. To assess motor function, the distance travelled in centimetres in the arena was measured, using VideoMot2 software (Version 8.02 (131) 03-07-17 (TSE Systems, Bad Homburg, Germany).

“And” between values parts separate entries of the source, which are not always exact repeats. Equal values may be shown once. Read-outs that look alike come from different tables or passages of the source.

T1 sequence (P22303 32-614): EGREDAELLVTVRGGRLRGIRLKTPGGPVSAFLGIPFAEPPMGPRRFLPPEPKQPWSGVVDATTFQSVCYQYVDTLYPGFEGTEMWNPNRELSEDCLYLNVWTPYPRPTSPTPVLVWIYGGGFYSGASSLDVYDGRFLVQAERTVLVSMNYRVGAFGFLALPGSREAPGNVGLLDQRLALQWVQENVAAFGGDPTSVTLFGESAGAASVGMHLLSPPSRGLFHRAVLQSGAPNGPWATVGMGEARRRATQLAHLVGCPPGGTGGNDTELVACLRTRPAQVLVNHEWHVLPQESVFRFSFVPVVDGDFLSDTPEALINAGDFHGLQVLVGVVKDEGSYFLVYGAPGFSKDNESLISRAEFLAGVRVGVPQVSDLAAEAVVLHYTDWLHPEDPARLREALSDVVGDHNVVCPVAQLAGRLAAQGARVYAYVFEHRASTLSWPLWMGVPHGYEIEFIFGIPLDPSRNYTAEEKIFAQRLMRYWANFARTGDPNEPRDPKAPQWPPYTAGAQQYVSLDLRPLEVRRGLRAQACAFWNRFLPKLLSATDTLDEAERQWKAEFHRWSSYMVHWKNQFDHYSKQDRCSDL
T3 sequence (P06276 29-602): as the sequence (P06276 29-602) above

As a reminder, the IC50 is the concentration at which inhibition is half-maximal. One may read the Ki as a measure of affinity in units of concentration, obtained from inhibition or displacement. Higher therefore signals lower affinity. What is called LD50 is the dose at which mortality reaches 50%. As to `CC[N+](CC)(CCCCCn1c(=O)ccn(CCCCn2c(C)cc(=O)n(C)c2=O)c1=O)Cc1ccccc1C#N` [2b, 1,4-{(3,6-Dimethyluracil-1-yl)-[3-(5-o-nitrilebenzyl(diethyl)ammonio)pentyl)-uracil-1-yl]}butane bromide], the IC50 at human AChE [1] (AChE IC50, as printed in text and Figure 9) came out at 0.0649 nM; on human AChE [1] (IC50 AChE, Table 1, recombinant human AChE, 25 °C, pH 8.0) it was 0.06 ± 0.003 nM; on BChE from human plasma it was 219000 ± 50000 nM. The Ki amounted to 0.0557 ± 0.0081 nM at human AChE [2] and 130000 ± 20000 nM on human BuChE. Also, the “Kui (uncompetitive inhibition constant), AChE” value at human AChE [2] (ATCh as substrate) is recorded as 156 ± 18 pM. Further, the “type of AChE inhibition” value on human AChE [2] (Dixon and Cornish–Bowden plots) is recorded as “mixed type”. In addition, at human BuChE (BuTCh as substrate), the “Kui (uncompetitive inhibition constant), BuChE” value is listed as 0.7 ± 0.06 mM. Also, the “type of BuChE inhibition” value at human BuChE (Dixon and Cornish–Bowden plots) is “mixed type”. In addition, the 50% lethal dose (LD50) at 7 days is 5.16 mg/kg in series [3] (observed 7 days, read-out: LD50 (median lethal dose)) and 3.68 to 6.94 mg/kg in series [3] (read-out: LD50 95% confidence limits). The “n/N (mice surviving 5 days after POX poisoning / total)” value in series [4] (2b 0.005 mg/kg i.p. 30 min before POX 0.42 mg/kg i.p.) was 8/12; in series [4] (2b 0.01 mg/kg i.p. 30 min before POX 0.42 mg/kg i.p.), 10 out of 12 and 10/12; in series [4] (2b 0.05 mg/kg i.p. 30 min before POX 0.42 mg/kg i.p.) it was 7/12; in series [4] (2b 0.1 mg/kg i.p. 30 min before POX 0.42 mg/kg i.p.), 5/12; in series [4] (2b 0.5 mg/kg i.p. 30 min before POX 0.42 mg/kg i.p.), 4/12; in series [4] (2b 1 mg/kg i.p. 30 min before POX 0.42 mg/kg i.p.) it was 4/12. In series [4] (2b 0.01 mg/kg pre-treatment, p = 0.02), the “relative risk of death (RRD) vs poisoned group treated only with atropine” value was “significantly decreased”. Moreover, in series [4] (2b doses above 0.01 mg/kg), the “relative risk of death (RRD)” value is given as “did not result in a reduction”. For the same compound, the “mean fall time (rotarod)” value in the series on mice [5] is on record as 124 ± 20 s. The “distance travelled (open field) vs control group” value in the series with mice [6] is “no significant differences”. Moreover, in the series with mice [6], the “number of rearings or head dips (open field)” value is “neither of the tested compounds significantly influenced”.

The values above are taken from PMC12027946, “Ionic and Non-Ionic Counterparts Based on Bis(Uracilyl)Alkane Moiety with Highest Selectivity Towards Acetylcholinesterase for Protection Against Organophosphate Poisoning and Treating Alzheimer’s Disease” (International Journal of Molecular Sciences, 2025).
